The text below walks through data of publication PMC10580965 (Microbiology Spectrum, 2023).

≈ marks a conversion by molar mass, not a printed value. Like-named read-outs stand apart in the source and are kept apart here. Bridge positions count the residues as written; N and C are the ends. Square brackets hold non-standard residues; d marks the D form. Peptide text beside a SMILES is read from it. * marks the point of attachment. Ileψ(thiazoline)Cys = CC[C@H](C)[C@H](N)C1=N[C@H](C(=O)*)CS1; dOrn = NCCC[C@@H](N)C(=O)O; X1 = CC[C@H](C)CCCCC(=O)*; Dab = NCC[C@H](N)C(=O)O

Data set [1] concerns C. pseudotuberculosis wild-type.
The test system of data set [2] is C. pseudotuberculosis ΔlysX complement.
The conditions of data set [3]: pH 7; cited from earlier work.
For data set [4], the system named is Corynebacterium spp. The following applies: cited from earlier work.

`CC[C@H](C)CCCCC(=O)N[C@@H](CCN)C(=O)N[C@H](C(=O)N[C@@H](CCN)C(=O)N[C@H]1CCNC(=O)[C@H]([C@@H](C)O)NC(=O)[C@H](CCN)NC(=O)[C@H](CCN)NC(=O)[C@H](CC(C)C)NC(=O)[C@@H](Cc2ccccc2)NC(=O)[C@H](CCN)NC1=O)[C@@H](C)O` [Polymyxin B] (X1-[Dab]T[Dab][Dab][Dab][dF]L[Dab][Dab]T; lactam 4-C (inferred); N-terminus assumed): in data set [1] (24 h), the MIC wt amounted to 640 µg/mL (≈ 532 µM). In data set [2] (24 h), the “MIC ΔlysX complement” value worked out at 640 µg/mL (≈ 532 µM). In addition, the Charge entry in data set [3] is on record as “+5”.
In data set [1], `NC[C@H]1O[C@H](O[C@H]2[C@H](O)[C@@H](O[C@H]3O[C@H](CO)[C@@H](O)[C@H](N)[C@H]3O)[C@H](N)C[C@@H]2N)[C@H](O)[C@@H](O)[C@@H]1O` [Kanamycin] showed an MIC wt of 10 µg/mL (≈ 20.6 µM). Moreover, in data set [2], the “MIC ΔlysX complement” value turned out to be 10 µg/mL (≈ 20.6 µM). The Charge entry in data set [3] is recorded as “+4”.
For `CO/N=C(\C(=O)N[C@@H]1C(=O)N2C(C(=O)O)=C(CSc3nc(=O)c(=O)[nH]n3C)CS[C@H]12)c1csc(N)n1` [Ceftriaxone], the MIC wt in data set [1] came out at 0.625 µg/mL (≈ 1.13 µM). Moreover, the Charge in data set [3] is on record as −2.
Consider `CC[C@H]1OC(=O)[C@H](C)[C@@H](O[C@H]2C[C@@](C)(OC)[C@@H](O)[C@H](C)O2)[C@H](C)[C@@H](O[C@@H]2O[C@H](C)C[C@H](N(C)C)[C@H]2O)[C@](C)(O)C[C@@H](C)C(=O)[C@H](C)[C@@H](O)[C@]1(C)O` [Erythromycin], for which the MIC wt in data set [1] was determined as 0.156 µg/mL (≈ 0.213 µM). In addition, the Charge result in data set [3] is recorded as “+1”.
In data set [1], `CCCNC[C@]1(O)[C@H](C)O[C@@H](O[C@H]2[C@H](C)[C@@H](O[C@@H]3O[C@H](C)C[C@H](N(C)C)[C@H]3O)[C@](C)(O)C[C@@H](C)CN[C@H](C)[C@@H](O)[C@](C)(O)[C@@H](CC)OC(=O)[C@@H]2C)C[C@@]1(C)OC` [Tulathromycin] came in with an MIC wt of 2.5 µg/mL (≈ 3.1 µM). Besides, the “MIC ΔlysX complement” value in data set [2] worked out at 2.5 µg/mL (≈ 3.1 µM). Further, the Charge entry in data set [3] is listed as “+3”.
As to `CC[C@H](C)[C@H](N)C1=N[C@H](C(=O)N[C@@H](CC(C)C)C(=O)N[C@H](CCC(=O)O)C(=O)N[C@H](C(=O)N[C@H]2CCCCNC(=O)[C@H](CC(N)=O)NC(=O)[C@@H](CC(=O)O)NC(=O)[C@H](Cc3cnc[nH]3)NC(=O)[C@@H](Cc3ccccc3)NC(=O)[C@H]([C@@H](C)CC)NC(=O)[C@@H](CCCN)NC2=O)[C@@H](C)CC)CS1` [Bacitracin] ({Ileψ(thiazoline)Cys}-L[dE]IK[dOrn]I[dF]H[dD]N; lactam 4-C (inferred); N-terminus assumed), the MIC wt in data set [1] (24 h) is recorded as 6.4 µg/mL (≈ 4.5 µM). Besides, the Charge in data set [3] is recorded as 0.
On to `CN(C)[C@@H]1C(O)=C(C(N)=O)C(=O)[C@@]2(O)C(O)=C3C(=O)c4c(O)cccc4[C@@](C)(O)[C@H]3C[C@@H]12` [Tetracycline], for which the MIC wt in data set [1] is 0.312 µg/mL (≈ 0.702 µM). In data set [3], the Charge is reported as −1.
Take `CC1(C)S[C@@H]2[C@H](NC(=O)[C@H](N)c3ccccc3)C(=O)N2[C@H]1C(=O)O` [Ampicillin]: the Charge in data set [3] was 0.
In data set [1], `CN[C@@H]1[C@H](O)[C@H](NC)[C@H]2O[C@@]3(O)C(=O)C[C@@H](C)O[C@H]3O[C@@H]2[C@H]1O` [Spectinomycin] gave an MIC wt of 2.5 µg/mL (≈ 7.52 µM). Moreover, the “MIC ΔlysX complement” value in data set [2] is listed as 2.5 µg/mL (≈ 7.52 µM). Also, in data set [3], the Charge result is given as “+1”.
`[H]/N=C(/N)N[C@H]1[C@H](O)[C@@H](O)[C@H](O[C@@H]2O[C@@H](C)[C@](O)(C=O)[C@H]2O[C@@H]2O[C@@H](CO)[C@H](O)[C@@H](O)[C@@H]2NC)[C@@H](N/C(N)=N\[H])[C@@H]1O` [Streptomycin] displayed an MIC wt in data set [1] of 20 µg/mL (≈ 34.4 µM). In addition, the “MIC ΔlysX complement” value in data set [2] was determined as 20 µg/mL (≈ 34.4 µM). Further, the Charge result in data set [3] is recorded as “+3”.
In data set [1], `O=C(N[C@H](CO)[C@H](O)c1ccc([N+](=O)[O-])cc1)C(Cl)Cl` [Chloramphenicol] displayed an MIC wt of 10 µg/mL (≈ 30.9 µM). Moreover, in data set [3], the Charge is on record as 0.
In data set [1], `Cc1onc(-c2ccccc2)c1C(=O)N[C@@H]1C(=O)N2[C@@H]1SC(C)(C)[C@@H]2C(=O)O` [Oxacillin] gave an MIC wt of 2.5 µg/mL (≈ 6.23 µM). Moreover, in data set [3], the Charge is given as −1.
On to `CN(C)[C@@H]1C(O)=C(C(N)=O)C(=O)[C@@]2(O)C(O)=C3C(=O)c4c(O)cccc4[C@@](C)(O)[C@H]3[C@H](O)[C@@H]12` [Oxytetracycline], for which the MIC wt in data set [1] came to 0.625 µg/mL (≈ 1.36 µM). Further, in data set [3], the Charge is reported as 0.
In the case of `CC[C@H](C)[C@H](NC(=O)CN)C(=O)NCC(=O)N[C@@H](C)C(=O)N[C@H](C(=O)N[C@@H](CC(C)C)C(=O)N[C@@H](CCCCN)C(=O)N[C@H](C(=O)N[C@@H](CC(C)C)C(=O)N[C@H](C(=O)N[C@H](C(=O)NCC(=O)N[C@@H](CC(C)C)C(=O)N1CCC[C@H]1C(=O)N[C@@H](C)C(=O)N[C@@H](CC(C)C)C(=O)N[C@H](C(=O)N[C@@H](CO)C(=O)N[C@@H](Cc1c[nH]c2ccccc12)C(=O)N[C@H](C(=O)N[C@@H](CCCCN)C(=O)N[C@@H](CCCNC(=N)N)C(=O)N[C@@H](CCCCN)C(=O)N[C@@H](CCCNC(=N)N)C(=O)N[C@@H](CCC(N)=O)C(=O)N[C@@H](CCC(N)=O)C(N)=O)[C@@H](C)CC)[C@@H](C)CC)[C@@H](C)O)[C@@H](C)O)C(C)C)C(C)C` [Melittin], the MIC wt in data set [1] (24 h) is listed as above 40 µg/mL. The “MIC ΔlysX complement” value in data set [2] (24 h) was above 40 µg/mL. In data set [3], the Charge result was “+5”.
The compound Nisin registered an MIC wt in data set [1] of 80 µg/mL. The “MIC ΔlysX complement” value in data set [2] came out at 80 µg/mL. Moreover, in data set [3], the Charge result is reported as “+4”.
With `CN[C@H](CC(C)C)C(=O)N[C@H]1C(=O)N[C@@H](CC(N)=O)C(=O)N[C@H]2C(=O)N[C@H]3C(=O)N[C@H](C(=O)N[C@H](C(=O)O)c4cc(O)cc(O)c4-c4cc3ccc4O)[C@H](O)c3ccc(c(Cl)c3)Oc3cc2cc(c3O[C@@H]2O[C@H](CO)[C@@H](O)[C@H](O)[C@H]2O[C@H]2C[C@](C)(N)[C@H](O)[C@H](C)O2)Oc2ccc(cc2Cl)[C@H]1O` [Vancomycin], in data set [1] (24 h), the MIC wt worked out at 0.75 µg/mL (≈ 0.518 µM). In addition, the Charge result in data set [3] is reported as “+1”.
As to `CC1(C)S[C@@H]2[C@H](NC(=O)[C@H](NC(=O)N3CCNC3=O)c3ccccc3)C(=O)N2[C@H]1C(=O)O` [Azlocillin], the MIC wt in data set [1] came to 0.156 µg/mL (≈ 0.338 µM). The Charge in data set [3] was −1.
Consider `CNC(C)C1CCC(N)C(OC2C(N)CC(N)C(OC3OCC(C)(O)C(NC)C3O)C2O)O1` (centres unmarked) [Gentamicin], for which the MIC wt in data set [1] is 5 µg/mL (≈ 10.5 µM). Further, the “MIC ΔlysX complement” value in data set [2] came to 5 µg/mL (≈ 10.5 µM). Besides, in data set [3], the Charge result is reported as “+5”. Further, the susceptibility breakpoint in data set [4] is on record as 4 µg/mL.
Take `CN[C@@H]1[C@@H](O[C@H]2O[C@H](CO)[C@@H](N)[C@H](O)[C@H]2O)OC2C[C@@H](N)[C@@H](O[C@H]3[C@H](O)[C@@H](O)[C@H](N)C[C@@H]3N)OC2[C@@H]1O` (some centres unmarked) [Apramycin]: in data set [1], the MIC wt is recorded as 20 µg/mL (≈ 37.1 µM). Further, the “MIC ΔlysX complement” value in data set [2] is 20 µg/mL (≈ 37.1 µM). Besides, the Charge entry in data set [3] is recorded as “+5”.
